Results: patent US9856511B2, “Protease deubiquitinating inhibitor screening” (priority 2011, dated 2018)

How the values were obtained:
[1] = Animal weight and side effects in treated tumor-bearing mice; format: in vivo
Method: In order to investigate the effect of b-AP15 on tumor growth in vivo, the compound was administered to mice bearing either a human tumor or mouse xenografts. FaDu head and neck carcinoma were chosen as a SCID mouse xenograft both as a model for a p53mut tumor and since this model is suitable for studies using circulating cell death biomarkers (30). Significant inhibition of FaDu tumor growth was observed following daily treatment with b-AP15 (treated/control tumor volume, T/C=0.4, p=<0.001). Similarly b-AP15 (day on/2 day off schedule) inhibited tumor growth in C57BL/6J mice bearing lung carcinomas (T/C=0.16, p=<0.01). […] To examine whether b-AP15 promotes tumor cell death in vivo, plasma levels of cytokeratin-18 (CK18) were analyzed. […] To investigate the ability of b-AP15 to inhibit proteasome deubiquitination in vivo, accumulation of poly-ubiquitin conjugates was analyzed by means of antibodies specific for K48 linked polyubiquitin chains. Histological analysis of treated tumors confirmed the accumulation of poly-ubiquitin conjugates.
Animal experiments were conducted in full accordance with Swedish governmental statutory regulations on animal welfare under permission from local ethical committees. Animals were housed at a max of five per cage and provided with sterile water and food ad libitum. All mice were monitored and weighed daily. For the head and neck carcinoma model a 100-μl cell suspension containing 1×10^6 FaDu cells was injected subcutaneously into the right rear flank of the animals. After injection, tumor growth was measured daily with calipers and the tumor volume calculated by the formula […]. When tumors had grown to a size of approximately 200 mm^3 (Day 0) mice were randomized to receive either vehicle (n=10) or b-AP15 5 mg/kg^−1 by subcutaneous injection s.c. (n=15) daily. For the colon carcinoma model, 2.5×10^6 HCT-116 colon carcinoma cells stably transfected with Bcl-2 (HCT-116^Bcl-2+) were inoculated subcutaneously into the right flank of nude mice. One day after inoculation mice were treated with 5 mg/kg^−1 by intra peritoneal injection (i.p.). Animals were inspected daily to establish the tumor onset and growth. For the lung carcinoma model a 100-μl cell suspension containing 2×10^5 Lewis Lung Carcinoma (LLC) cells was injected subcutaneously into the right rear flank of C57/B6 mice. When tumors had grown to a size of approximately 50 mm^3 (Day 0) mice were randomized to receive either vehicle (n=4) or b-AP15 5 mg/kg^−1 i.p. (n=4) with a treatment cycle consisting of two days treatment followed by two days no treatment (2 days on/2 days off) for two weeks. For the breast carcinoma model a 100-μl cell suspension containing 1×10^5 […] was injected subcutaneously into the right mammary fat pad of BALB/c mice. When tumors had grown to a size approximately 25 mm^3 (Day 0), mice were randomized to receive either vehicle (n=5) or b-AP15 2.5 mg/kg^−1 i.p. (n=5) with a treatment cycle consisting of one days treatment followed by three days no treatment (1 day on/3 days off) for 3 weeks. In the AML studies female C57BL/6J mice were injected i.v. in the tail vein with 5×10^5 C1498 AML cells. After eight days mice were randomized to receive either b-AP15 5 mg/kg^−1 (n=10) or vehicle (n=10) i.p. for 7 days (day +8 till +14). Nineteen days after malignant cell injection all of the mice were killed and histopathological manifestations of liver, ovary (target organs for this model of tumor) were evaluated and compared between groups. […]

HCT-116 cells = assay: Cell-cycle analysis, propidium iodide staining and flow cytometry; format: cell-based
Method: The turnover of many cell cycle regulatory proteins is controlled by the UPS including inhibitors of the cyclin-dependent kinases p21 Cip1, p27 Kip1 and the tumor suppressor p53 (4). Treatment with b-AP15 increased their levels in a dose dependent manner.
For determination of cell cycle HCT-116 cells were treated with b-AP15 or DMSO Cells were harvested by trypsinisation, washed and fixed in 70% ice cold EtOH for 12 h. Cells were re-suspended in staining solution containing propidium iodide (50 μg/ml) and RNAse A (0.5 μg/ml) in PBS. Samples were run on BD FACScalibur. The percentage of cells in each phase of the cell cycle was determined using ModFit software.
b-AP15 inhibits degradation of ubiquitin-tagged YFP in a proteasome reporter cell line (FIG. 1a). Levels of ^UbG76V-YFP accumulation were determined by flow cytometry and immunoblotting; immunoblot of ubiquitin conjugation in HCT-116 cells treated with b-AP15 (1 μM) or bortezomib (100 nM) (FIG. 1b). Immunoblot of ubiquitin conjugates, caspase 3 activation PARP cleavage, p53. P21^Cip1 and p^Kip1 in HCT-116 cells following 24 h treatment with the indicated concentrations of b-AP15 (FIG. 1c). […]

SMILES: C=CC(=O)N1C/C(=C\c2ccc([N+](=O)[O-])cc2)C(=O)/C(=C/c2ccc([N+](=O)[O-])cc2)C1 [b-AP15]
- difference in weight at start and endpoint between control and treated animals ([1]; 4T1): +5.8%
- difference in weight at start and endpoint between control and treated animals ([1]; FaDu xenograft): −1.3%
- difference in weight at start and endpoint between control and treated animals ([1]; LLC): +2.1%
- adverse side effects ([1]; b-AP15 treated group): No adverse side effects were observed
- average weight loss at the conclusion of the study ([1]; b-AP15 treated group): < 5%
- cell cycle effect (HCT-116 cells): cell cycle arrest in the G2/M phase boundary
